This is an account of results in ChEMBL document CHEMBL1137933, “Pseudodeflectusin, a novel isochroman derivative from Aspergillus pseudodeflectus a parasite of the sea weed, Sargassum fusiform, as a selective human cancer cytotoxin” (Bioorg Med Chem Lett, 2004).

One assay has as its target Gamma-secretase. Kind of assay: Inhibition of human gamma-secretase activity. The format is protein-complex assay.
In assay [1] the test system is Mus musculus. Kind of assay: Compound was tested for reduction in Abeta-protein levels in brain after 3 hr in Tg2576 beta-APP-swedish transgenic mice at a single dose of 200 umol/kg. The format is functional.
Assay [2] has as its system Mus musculus. As to the kind of experiment: Compound was tested for reduction in Abeta-protein levels in plasma of Tg2576 beta-APP-swedish transgenic mice at a single dose of 200 umol/kg. The format is functional.
Assay [3] concerns Mus musculus. As to the kind of experiment: Compound was tested for reduction in Abeta-protein levels in the CNS of Tg2576 beta-APP-swedish transgenic mice after oral administration. The format is functional, Central nervous system.
The subject of assay [4] is Mus musculus. Kind of assay: Compound was tested for reduction in Abeta-protein levels in brain of Tg2576 mice 3h after oral administration at 200 umol/kg. The format is functional.
Assay [5] has as its system Mus musculus. Kind of assay: Compound was tested for reduction in plasma level of Tg2576 mice 3h after oral administration at 200 umol/kg. The format is functional.
Assay [6] has as its system Mus musculus. As to the kind of experiment: Compound was tested for reduction in brain Abeta-protein level of Tg2576 mice 3h after oral administration at 200 umol/kg. The format is functional.

Take `CC(C)C[C@H](NC(=O)[C@@H](O)c1ccccc1)C(=O)N[C@H]1c2ccccc2C[C@H]1O`: on Gamma-secretase, the concentration for half-maximal inhibition (IC50) (in general, the midpoint of a concentration-inhibition curve) came to 71 nM.

With `CC(C)N1C(=O)c2ccccc2C(NC(=O)[C@H](C)NC(=O)Cc2cc(F)cc(F)c2)C(=O)N1C` (stereo not given in full), on Gamma-secretase, the IC50 is 47 nM.

`CCCCN(C)C(=O)[C@H](CC1CCCCC1)NC(=O)[C@H](CC(C)C)NC(=O)Cc1cc(F)cc(F)c1` returned an IC50 against Gamma-secretase of 6 nM.

For the compound `CC(C)N1C(=O)c2ccccc2C(NC(=O)[C@H](C)NC(=O)[C@@H](O)c2cc(F)cc(F)c2)C(=O)N1C` (stereo not given in full), at Gamma-secretase, the 50% inhibitory concentration (IC50) came to 5 nM. The IC50 values of the last two compounds are within 1.5-fold of each other.

On Gamma-secretase, `CC(C)N1C(=O)c2ccccc2C(NC(=O)[C@H](C)NC(=O)Cc2ccccc2)C(=O)N1C` (stereo not given in full) showed an IC50 of 140 nM. Against the preceding compound, the IC50 is about 28-fold higher.

In turn, `CC(C)N1C(=O)c2ccccc2C(NC(=O)[C@H](C)NC(=O)Cc2cc(C(F)(F)F)cc(C(F)(F)F)c2)C(=O)N1C` (stereo not given in full) came in with a half-inhibitory concentration (IC50) at Gamma-secretase greater than 2500 nM.

As for `CC(C)C[C@H](NC(=O)Cc1cc(F)cc(F)c1)C(=O)Nc1cnc(-c2ccccc2)n(C)c1=O`, the IC50 at Gamma-secretase amounted to 720 nM.

Compound `CC(C)N1C(=O)c2ccccc2C(NC(=O)[C@H](C)NC(=O)CC2CCCCC2)C(=O)N1C` (stereo not given in full) showed an IC50 against Gamma-secretase of 150 nM.

`CCCCN(C)C(=O)[C@H](CC1CCCCC1)NC(=O)[C@H](CC(C)C)NC(=O)[C@@H](O)c1ccccc1`: the values for the Activity with Mus musculus [1] and in the assay with Mus musculus [2] were 65 nM and 1833 nM, respectively. In addition, in the assay with Mus musculus [3], the Reduction came to 15%. On Gamma-secretase, this compound came in with an IC50 of 1 nM.

In the case of `C[C@H](NC(=O)Cc1cc(F)cc(F)c1)C(=O)NC1N=C(c2ccccc2)c2ccccc2N(C)C1=O` (stereo not given in full), the 50% inhibitory concentration (IC50) against Gamma-secretase stood at 210 nM.

Take `CC(C)C[C@H](NC(=O)Cc1ccsc1)C(=O)NC1C(=O)N(C)N(C(C)C)C(=O)c2ccccc21` (stereo not given in full): the half-inhibitory concentration (IC50) against Gamma-secretase was 4 nM.

With `CC(C)[C@H](NC(=O)Cc1cc(F)cc(F)c1)C(=O)NC1C(=O)N(C)N(C(C)C)C(=O)c2ccccc21` (stereo not given in full), at Gamma-secretase, the 50% inhibitory concentration (IC50) was found to be 190 nM.

Compound `C[C@H](NC(=O)Cc1cc(F)cc(F)c1)C(=O)NC1C(=O)N(C)N(C)C(=O)c2ccccc21` (stereo not given in full) gave a Reduction with Mus musculus [4] of 43%. On Gamma-secretase, this compound came in with an IC50 of 5 nM. Further, the results for the Activity in the assay on Mus musculus [5] and in the assay with Mus musculus [6] were 2987 nM and 77 nM, respectively.

Compound `CC(C)N1C(=O)c2ccccc2C(NC(=O)[C@H](C)NC(=O)Cc2ccco2)C(=O)N1C` (stereo not given in full) gave an IC50 against Gamma-secretase of 86 nM.

In the case of `CC(C)N1C(=O)c2ccccc2C(NC(=O)[C@H](C)NC(=O)Cc2cccnc2)C(=O)N1C` (stereo not given in full), the IC50 on Gamma-secretase was greater than 2500 nM.

Regarding `CC(C)N1C(=O)c2ccccc2C(NC(=O)[C@H](C)NC(=O)Cc2ccoc2)C(=O)N1C` (stereo not given in full), half-maximal inhibition on Gamma-secretase (IC50) was put at 38 nM.

`CC(C)N1C(=O)c2ccccc2C(NC(=O)[C@H](C)NC(=O)Cc2ccncc2)C(=O)N1C` (stereo not given in full) had an IC50 on Gamma-secretase greater than 2500 nM.

On Gamma-secretase, `CC(C)C[C@H](NC(=O)Cc1cc(F)cc(F)c1)C(=O)NC1C(=O)N(C)C(c2ccccc2)=NC1(C)C` (stereo not given in full) showed a 50% inhibitory concentration (IC50) of 1500 nM.

Consider `CC(C)C[C@H](NC(=O)Cc1cc(F)cc(F)c1)C(=O)NC1C(=O)N(C)N(C(C)C)C(=O)c2ccccc21` (stereo not given in full), for which the IC50 on Gamma-secretase turned out to be 37 nM.

As for `CC(C)N1C(=O)c2ccccc2C(NC(=O)[C@H](C)NC(=O)Cc2cccc3ccccc23)C(=O)N1C` (stereo not given in full), at Gamma-secretase, the IC50 was greater than 2500 nM.

In turn, `CC(C)N1C(=O)c2ccccc2C(NC(=O)[C@H](C)NC(=O)Cc2ccsc2)C(=O)N1C` (stereo not given in full) had an IC50 against Gamma-secretase of 14 nM.

The compound `C[C@H](NC(=O)Cc1cc(F)cc(F)c1)C(=O)NC1C(=O)N(C)c2ccccc2-c2ccccc21` (stereo not given in full) yielded an IC50 against Gamma-secretase of 76 nM.

At Gamma-secretase, `COc1cc(CC(=O)N[C@@H](C)C(=O)NC2C(=O)N(C)N(C(C)C)C(=O)c3ccccc32)cc(OC)c1` (stereo not given in full) gave an IC50 greater than 2500 nM.

For the compound `CC(C)N1C(=O)c2ccccc2C(NC(=O)[C@H](C)NC(=O)Cc2cccc(F)c2)C(=O)N1C` (stereo not given in full), half-maximal inhibition on Gamma-secretase (IC50) was put at 57 nM. In other words, the double-digit nanomolar range.
